Laboratory results taken from patent US20160235752A1, “COMPOSITIONS, METHODS OF USE, AND METHODS OF TREATMENT” (THE UNIVERSITY OF NEW ORLEANS, priority 2013, published 2016).
In brackets after ≈: the same amount, converted by molar mass.

How the values were obtained:
[1] = tested on: Candida albicans (ATCC no. 10231); assay: MIC determination by broth microdilution (NCCLS), visual scoring; type: cell-based; details: for MIC80: Candida albicans, ATCC10231, read-out: MIC80 C. albicans
Method: The antifungal activity of the 2,4,6-pyrimidinetrione analogs shown in Schemes 2-6 were evaluated in vitro using Candida albicans (ATCC no. 10231) and Candida glabrata (ATCC no 48435). All assays were done in accordance with NCCLS reference documents^29.
(§1) Master stock concentrations of all tested compounds were prepared to ensure that the maximum final concentration of DMSO was 1% or less. Subsequent 2-fold serial dilutions were made using sterile water to a final concentration of 1280-5.00 μg/ml. A final 10-fold dilution of each drug was made by aliquotting 0.1 mL of each drug dilution into 0.9 mL of fungal suspension in RPMI 1640 media with 10 mM HEPES buffer added (see methodology below), giving final concentrations tested in the range of 128-0.5 μg/ml.
(§2) Antifungal susceptibility studies and minimal inhibitory concentrations (MIC) values for Candida albicans (ATCC no. 10231) and Candida glabrata (ATCC no. 48435) were determined by the broth microdilution technique in accordance with NCCLS reference documents. Microdilution panels ranged from 0.5 to 128 μg/mL. All organisms were subcultured on Sabouraud agar and passaged to ensure purity and viability. The initiating inocula were prepared by picking 5-7 isolated colonies ˜1 mm in diameter from freshly prepared YM agar plates. Colonies were resuspended in sterile water, vortexed and the cell density was adjusted spectrophotometrically to the transmittance of a 0.5 McFarland standard at a wavelength of 530 nm, to yield a stock suspension of 1×10^6-5×10^6 cells/mL. The stock was allowed to hydrate for 30 minutes at room temperature. A working suspension was then made by diluting the stock 1:50 with RPMI 1640 media containing HEPES buffer. The working suspension was used for all assays. The plates were incubated at 35° C. for 48-72 hours in a humid atmosphere. Growth was scored visually. MIC values are defined as the lowest concentration of agent that prevents any discernible growth, ˜80% reduction of growth, as compared with drug-free control wells. All assays were run in parallel using either fluconazole or amphotericin B at the NCCLS recommended concentrations^29 as a drug control (Sigma-Aldrich).

[2] = tested on: Candida glabrata (ATCC no. 48435); assay: as above; type: cell-based; details: for MIC80: Nakaseomyces glabratus, ATCC48435, read-out: MIC80 C. glabrata
Method: The antifungal activity of the 2,4,6-pyrimidinetrione analogs shown in Schemes 2-6 were evaluated in vitro using Candida albicans (ATCC no. 10231) and Candida glabrata (ATCC no 48435). All assays were done in accordance with NCCLS reference documents^29. The results of these screenings are summarized in Tables 1-9 as the minimal inhibitory concentrations that inhibited more than 80% fungal growth as compared to the positive controls in 1% DMSO and RPMI media. All MIC screens were done using a visual scoring method as opposed to spectroscopic methods of analysis, due to the physical properties of many of the compounds altering their absorbance spectra relative to the positive, negative and drug controls.
as §1, with “None of the compounds tested over the course of these studies were soluble in water and DMSO was used to dilute each compound tested. Master” for “Master”
as §2

[3] = Table 1, 5-Acyl-2,4,6-pyrimidinetriones, >80% growth inhibition, RPMI, 1% DMSO
[4] = Table 7, Phenylhydrazones of 5-Acylpyrimidinetriones
[5] = Table 5, Schiff Bases of 5-acylpyrimidinetriones

| Compound | MIC80 C. albicans [1, 3] | MIC80 C. glabrata [2, 3] | MIC80 [1] | MIC80 [2] | also measured |
| --- | --- | --- | --- | --- | --- |
| COc1ccc(C(=O)C2C(=O)NC(=O)NC2=O)cc1 [BA14] | — (none of the 5-acyl-2,4,6-pyrimidinetriones, 5-alkylated pyrimidinetriones or the 5,5-dialkylated pyrimidinetriones showed antifungal activity through 125 μg/mL) | — (none of the 5-acyl-2,4,6-pyrimidinetriones, 5-alkylated pyrimidinetriones or the 5,5-dialkylated pyrimidinetriones showed antifungal activity through 125 μg/mL) | – | – | – |
| COc1ccc(C(=O)C2C(=O)N(C)C(=O)N(C)C2=O)cc1 [BA15] | — (none of the 5-acyl-2,4,6-pyrimidinetriones, 5-alkylated pyrimidinetriones or the 5,5-dialkylated pyrimidinetriones showed antifungal activity through 125 μg/mL) | — (none of the 5-acyl-2,4,6-pyrimidinetriones, 5-alkylated pyrimidinetriones or the 5,5-dialkylated pyrimidinetriones showed antifungal activity through 125 μg/mL) | – | – | – |
| CCCCN1C(=O)NC(=O)C(C(=O)c2ccc(OC)cc2)C1=O (centres unmarked) [BA16] | — (none of the 5-acyl-2,4,6-pyrimidinetriones, 5-alkylated pyrimidinetriones or the 5,5-dialkylated pyrimidinetriones showed antifungal activity through 125 μg/mL) | — (none of the 5-acyl-2,4,6-pyrimidinetriones, 5-alkylated pyrimidinetriones or the 5,5-dialkylated pyrimidinetriones showed antifungal activity through 125 μg/mL) | – | – | – |
| CN1C(=O)C(C(=O)c2cccnc2)C(=O)N(C)C1=O [BA17] | — (none of the 5-acyl-2,4,6-pyrimidinetriones, 5-alkylated pyrimidinetriones or the 5,5-dialkylated pyrimidinetriones showed antifungal activity through 125 μg/mL) | — (none of the 5-acyl-2,4,6-pyrimidinetriones, 5-alkylated pyrimidinetriones or the 5,5-dialkylated pyrimidinetriones showed antifungal activity through 125 μg/mL) | – | – | – |
| O=CC1C(=O)NC(=O)NC1=O [BA18] | — (none of the 5-acyl-2,4,6-pyrimidinetriones, 5-alkylated pyrimidinetriones or the 5,5-dialkylated pyrimidinetriones showed antifungal activity through 125 μg/mL) | — (none of the 5-acyl-2,4,6-pyrimidinetriones, 5-alkylated pyrimidinetriones or the 5,5-dialkylated pyrimidinetriones showed antifungal activity through 125 μg/mL) | – | – | – |
| CN1C(=O)C(C=O)C(=O)N(C)C1=O [BA19, 1,3-dimethyl-2,4,6-trioxohexahydropyrimidine-5-carbaldehyde] | – | – | > 125 mg/L | > 125 mg/L | – |
| CC(=O)C1C(=O)NC(=O)NC1=O [BA20] | – | – | > 125 mg/L | > 125 mg/L | – |
| CC(=O)C1C(=O)NC(=O)N(c2ccccc2)C1=O (centres unmarked) [BA21] | — (none of the 5-acyl-2,4,6-pyrimidinetriones, 5-alkylated pyrimidinetriones or the 5,5-dialkylated pyrimidinetriones showed antifungal activity through 125 μg/mL) | — (none of the 5-acyl-2,4,6-pyrimidinetriones, 5-alkylated pyrimidinetriones or the 5,5-dialkylated pyrimidinetriones showed antifungal activity through 125 μg/mL) | – | – | – |
| CN1C(=O)C(/C=N/Nc2ccc([N+](=O)[O-])cc2)C(=O)N(C)C1=O [BA23, 1,3-Dimethyl-5-{(E)-[2-(4-nitrophenyl)hydrazinylidene]methyl}pyrimidine-2,4,6-trione] | – | – | 2 mg/L (≈ 6.26 µM) | 2 mg/L (≈ 6.26 µM) | – |
| O=C1NC(=O)C(/C=N/Nc2ccc([N+](=O)[O-])cc2[N+](=O)[O-])C(=O)N1 [BA24, 5-{(E)-[2-(2,4-Dinitrophenyl)hydrazinylidene]methyl}pyrimidine-2,4,6-trione] | – | – | > 125 mg/L | 125 mg/L (≈ 372 µM) | – |
| C/C(=N\Nc1ccc([N+](=O)[O-])cc1[N+](=O)[O-])C1C(=O)NC(=O)NC1=O [BA26, 5-{(1E)-1-[2-(2,4-Dinitrophenyl)hydrazinylidene]ethyl}pyrimidine-2,4,6-trione] | – | – | > 125 mg/L | > 125 mg/L | – |
| C/C(=N\Nc1ccc([N+](=O)[O-])cc1[N+](=O)[O-])C1C(=O)N(C)C(=O)N(C)C1=O [BA27, 5-{(1E)-1-[2-(2,4-dinitrophenyl)hydrazinylidene]ethyl}-1,3-dimethylpyrimidine-2,4,6-trione] | – | – | > 125 mg/L | > 125 mg/L | – |
| C/C(=N\CCCCCC(=O)O)C1C(=O)NC(=O)NC1=O [BA29, 6-{(E)-[1-(2,4,6-trioxohexahydropyrimidin-5-yl)ethylidene]amino}hexanoic acid] | – | – | > 125 mg/L | > 125 mg/L | – |
| O=C1NC(=O)C(/C(=N/Nc2ccc([N+](=O)[O-])cc2[N+](=O)[O-])c2ccccc2)C(=O)N1 [BA30, 5-[(Z)-[2-(2,4-Dinitrophenyl)hydrazinylidene](phenyl)methyl]pyrimidine-2,4,6-trione] | – | – | > 125 mg/L | > 125 mg/L | – |
| CCCCN1C(=O)NC(=O)C(C(=NNc2ccc([N+](=O)[O-])cc2[N+](=O)[O-])c2ccccc2)C1=O (centres unmarked) [BA31] | – | – | – | – | MIC80 C. albicans [1, 4]: — (none of the 5-acyl-2,4,6-pyrimidinetriones, 5-alkylated pyrimidinetriones or the 5,5-dialkylated pyrimidinetriones showed antifungal activity through 125 μg/mL); MIC80 C. glabrata [2, 4]: — (none of the 5-acyl-2,4,6-pyrimidinetriones, 5-alkylated pyrimidinetriones or the 5,5-dialkylated pyrimidinetriones showed antifungal activity through 125 μg/mL) |
| O=C1NC(=O)N(c2ccccc2)C(=O)C1C(=NNc1ccc([N+](=O)[O-])cc1[N+](=O)[O-])c1ccccc1 (centres unmarked) [BA32] | – | – | – | – | MIC80 C. albicans [1, 4]: — (none of the 5-acyl-2,4,6-pyrimidinetriones, 5-alkylated pyrimidinetriones or the 5,5-dialkylated pyrimidinetriones showed antifungal activity through 125 μg/mL); MIC80 C. glabrata [2, 4]: — (none of the 5-acyl-2,4,6-pyrimidinetriones, 5-alkylated pyrimidinetriones or the 5,5-dialkylated pyrimidinetriones showed antifungal activity through 125 μg/mL) |
| CN1C(=O)C(C(=NNc2ccc(C(=O)O)cc2)c2ccccc2)C(=O)N(C)C1=O [BA33] | – | – | – | – | MIC80 C. albicans [1, 4]: — (none of the 5-acyl-2,4,6-pyrimidinetriones, 5-alkylated pyrimidinetriones or the 5,5-dialkylated pyrimidinetriones showed antifungal activity through 125 μg/mL); MIC80 C. glabrata [2, 4]: — (none of the 5-acyl-2,4,6-pyrimidinetriones, 5-alkylated pyrimidinetriones or the 5,5-dialkylated pyrimidinetriones showed antifungal activity through 125 μg/mL) |
| CN1C(=O)C(C(=NNc2ccc([N+](=O)[O-])cc2[N+](=O)[O-])c2ccc(O)cc2)C(=O)N(C)C1=O [BA34] | – | – | – | – | MIC80 C. albicans [1, 4]: — (none of the 5-acyl-2,4,6-pyrimidinetriones, 5-alkylated pyrimidinetriones or the 5,5-dialkylated pyrimidinetriones showed antifungal activity through 125 μg/mL); MIC80 C. glabrata [2, 4]: — (none of the 5-acyl-2,4,6-pyrimidinetriones, 5-alkylated pyrimidinetriones or the 5,5-dialkylated pyrimidinetriones showed antifungal activity through 125 μg/mL) |
| COc1ccc(C(=NCCCCCC(=O)O)C2C(=O)NC(=O)NC2=O)cc1 [BA35] | – | – | – | – | MIC80 C. albicans [1, 5]: — (none of the 5-acyl-2,4,6-pyrimidinetriones, 5-alkylated pyrimidinetriones or the 5,5-dialkylated pyrimidinetriones showed antifungal activity through 125 μg/mL); MIC80 C. glabrata [2, 5]: — (none of the 5-acyl-2,4,6-pyrimidinetriones, 5-alkylated pyrimidinetriones or the 5,5-dialkylated pyrimidinetriones showed antifungal activity through 125 μg/mL) |
